Consider 10 molecules from PubChem BioAssay (NCI).

Common to all, as to experiment: NCI tumour cell line growth inhibition, 48 h
In test [1] the test system is TK-10 renal.
The test system of test [2] is NCI-H226 lung.
For test [3], the system named is RXF 393 renal.
The subject of test [4] is A498 renal.
For test [5], the system named is SF-268 CNS.
Test [6] deals with CAKI-1 renal.
Test [7] deals with M14 melanoma.
For test [8], the system named is SR leukemia.
Test [9] deals with NCI-H23 lung.
The test system of test [10] is HCT-15 colon.

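Briefly, cells in 96-well plates were exposed to five compound concentrations for 48 h, and endpoints were estimated by linear interpolation. Here, GI50 denotes the concentration required for 50% inhibition of growth. TGI denotes the concentration required for complete inhibition of growth.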

Take `CCN(CC)C(=S)SSC1CCCCC1`: the GI50 in [1] was 18 µM; in test [2] it was 24.7 µM; in test [3], 16.4 µM; in test [4] it was 30.8 µM; in test [5] it was 23.1 µM; in [6], 11.9 µM. Besides, the GI50 in test [7] was 14.4 µM; in test [8] it was 0.0656 µM; in test [9], 20.8 µM; in [10] it was 19.7 µM. In addition, the TGI in [1] was 34.6 µM; in test [2] it was 76.1 µM; in test [3], 31.2 µM; in test [4], > 100 µM; in test [5], 60.9 µM; in [6] it was 25.2 µM. Also, the TGI in [7] is 30.9 µM; in [8], 4.36 µM; in test [9] it was 48.7 µM; in test [10] it was 46.4 µM.
`OC1CCC(C2C3CCCCC3C3CCCCC3C2C2CCC(O)CC2)CC1` (stereo not given): the TGI in test [1] was 34.9 µM; in [2], > 100 µM; in [3] it was 7.06 µM; in test [4], 32.2 µM; in test [5] it was 14.5 µM; in [6] it was 13 µM. Besides, the TGI is > 100 µM in [7], > 100 µM in [8], > 100 µM in [9] and 6.14 µM in test [10].
Regarding `O=C1NC(=O)C(c2ccccc2Cl)=C1Nc1cccc(O)c1`, the GI50 was 10.7 µM in test [1]; 6.19 µM in test [2]; 1.92 µM in [3]; 6.49 µM in [4]; 12.5 µM in test [5]; 4.41 µM in test [6]. Moreover, the GI50 in [7] is > 25 µM; in test [8], 1.97 µM; in test [9], 10.5 µM; in [10], 2.47 µM. In addition, the TGI in test [1] was > 25 µM; in test [2], > 25 µM; in test [3], > 21.1 µM; in [4] it was > 25 µM; in [5] it was > 25 µM; in test [6], > 25 µM. In addition, the TGI in test [7], in test [8], in [9] and in [10] was > 25 µM throughout.
As for `N#C/C(=C(\O)C(=O)O)c1ccc(-c2cccc3ccccc23)cc1`, the TGI in test [1], in test [2], in test [3], in [4], in test [5] and in test [6] was > 100 µM throughout. Moreover, the TGI in test [7], in test [8], in [9] and in [10] was > 100 µM in each case.
In the case of `O=C1/C(=C\c2cccs2)Oc2ccccc21`, the TGI in test [1], in test [2], in [3], in test [4], in test [5] and in test [6] was > 100 µM in each case. Moreover, the TGI in [7], in test [8], in [9] and in [10] was > 100 µM throughout.
On to `CN(C)CN1C(=O)S/C(=C2\C(=O)N(CN(C)C)c3ccccc32)C1=O`, for which the TGI in [1] is > 100 µM; in [2], > 100 µM; in test [3] it was 75 µM; in test [4], > 100 µM; in [5], > 100 µM; in test [6], 97.9 µM. The TGI in test [7] is 68.3 µM; in test [8], 45.3 µM; in [9], 49.2 µM; in test [10], > 100 µM.
In the case of `O=C(O)C(Cc1ccc(O)c([N+](=O)[O-])c1)N1C(=O)c2ccccc2C1=O` (stereo not given), the TGI in [1], in [2], in test [3], in test [4], in test [5] and in [6] was > 100 µM in each case. Besides, the TGI in test [7], in test [8], in test [9] and in test [10] was > 100 µM each time.
As to `C=C(CNCCO)[C@@H]1CC[C@]2(CO)CC[C@]3(C)[C@H](CC[C@@H]4[C@@]5(C)CCC(NCCc6ccc(O)cc6)C(C)(C)[C@@H]5CC[C@]43C)[C@@H]12` (stereo not given in full), the GI50 is 1.66 µM in test [1]; 1.69 µM in test [2]; 1.08 µM in test [3]; 1.46 µM in [4]; 1.56 µM in test [5]; 1.62 µM in test [6]. The GI50 in [7] was 0.187 µM; in test [8], 0.25 µM; in test [9], 1.77 µM; in [10], 1.36 µM. The TGI in test [1] was determined as 3.1 µM; in test [2], 3.48 µM; in test [3], 2.39 µM; in test [4], 2.81 µM; in test [5], 3.22 µM; in [6], 3.33 µM. Further, the TGI in test [7] came to 0.398 µM; in test [8], 0.802 µM; in test [9] it was 3.45 µM; in test [10] it was 2.82 µM.
Consider `O=c1oc2c3ccc4ccccc4c3n(Cc3nc4ccccc4[nH]3)c2c2ccccc12`, for which the TGI in [1], in test [2], in [3], in test [4], in [5] and in [6] was > 100 µM each time. In addition, the TGI in [7], in test [8], in test [9] and in test [10] was > 100 µM in each case.
As for `CC1=C(N2CC2)C(=O)c2nc3n(c2C1=O)CCC3O` (stereo not given), the TGI in test [1] worked out at 0.285 µM; in test [2], 2.14 µM; in [3], 0.398 µM; in test [4], 0.521 µM; in test [5], 0.629 µM; in [6] it was 0.777 µM. Moreover, the TGI in [7] was found to be 2.8 µM; in [8], 35.6 µM; in [9] it was 0.262 µM; in test [10] it was 29.6 µM.
